Source: paper PMC11870023, “A facile assay for zDHHC palmitoyl transferase activation elucidates effects of mutation and modification” (Journal of Lipid Research, 2025)

What was measured:
Assay in all cases: auto-S-palmitoylation of HEK293 membranes, SDS-PAGE fluorescence normalised to tag Western blot
human zDHHC14 = target: T1, human zDHHC14 (Homo sapiens, UniProt Q8IZN3, C181Y); assay type: biochemical; settings: pH 7.4, 37 °C, 2 min; labelled compound; covalent thioester at active-site Cys
T1 construct: full length, His6-Myc tag kept (pCEpuro-His6-Myc-1), HEK293 membrane fraction
T1 sequence (Q8IZN3 1-488 C181Y): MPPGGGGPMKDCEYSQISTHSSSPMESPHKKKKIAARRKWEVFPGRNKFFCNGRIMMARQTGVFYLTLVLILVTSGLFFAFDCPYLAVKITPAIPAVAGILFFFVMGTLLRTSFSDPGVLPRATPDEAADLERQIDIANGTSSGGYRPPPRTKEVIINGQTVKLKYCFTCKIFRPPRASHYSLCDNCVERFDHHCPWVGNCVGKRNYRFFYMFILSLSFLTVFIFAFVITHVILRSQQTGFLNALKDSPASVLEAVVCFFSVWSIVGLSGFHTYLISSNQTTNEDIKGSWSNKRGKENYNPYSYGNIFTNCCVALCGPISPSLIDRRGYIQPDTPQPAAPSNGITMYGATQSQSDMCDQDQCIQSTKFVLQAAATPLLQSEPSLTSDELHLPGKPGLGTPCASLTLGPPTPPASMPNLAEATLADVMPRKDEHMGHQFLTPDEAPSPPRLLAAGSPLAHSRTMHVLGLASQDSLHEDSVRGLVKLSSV

human zDHHC7 [1] = target: T2, human zDHHC7 (Homo sapiens, UniProt Q9NXF8); assay type: cell-based; settings: pH 7.4, 37 °C, 2 min; labelled compound; covalent thioester at active-site Cys
T2 construct: full length, His6-Myc tag kept (pCEpuro-His6-Myc-1), HEK293 membrane fraction
T2 sequence (Q9NXF8 1-308): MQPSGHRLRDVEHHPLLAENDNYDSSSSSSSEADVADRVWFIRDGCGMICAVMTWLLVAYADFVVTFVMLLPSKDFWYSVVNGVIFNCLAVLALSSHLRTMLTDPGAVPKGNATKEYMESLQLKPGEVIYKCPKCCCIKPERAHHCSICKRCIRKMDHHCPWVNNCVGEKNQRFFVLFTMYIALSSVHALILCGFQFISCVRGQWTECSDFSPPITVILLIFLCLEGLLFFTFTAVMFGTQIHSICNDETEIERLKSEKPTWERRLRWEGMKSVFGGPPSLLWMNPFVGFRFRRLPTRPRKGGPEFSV

mouse zDHHC11 = system: T3, mouse zDHHC11; assay type: cell-based; settings: pH 7.4, 37 °C; labelled compound; covalent thioester at active-site Cys
T3 construct: full length, HA tag kept (pEF-Bos-HA), HEK293 membrane fraction; the source plasmid set's older numbering used DHHC-11 for Zdhhc23, so the gene is not certain

human zDHHC7 [2] = target: T2, human zDHHC7; assay type: cell-based; settings: pH 7.4, 37 °C, 2 min; labelled compound; covalent thioester at active-site Cys; remark: listed apart in the source
Text: auto-S-palmitoylation of HEK293 membranes, SDS-PAGE fluorescence normalised to tag Western blot on human zDHHC7 | N44D mutation within the N-terminal cytoplasmic tail of zDHHC7 (Fig. 4A) had no effect

Km (human zDHHC7 [1]): 3.4 ± 0.57 µM
Km (human zDHHC7 [2]): 2.85 ± 0.72 µM
Structure (SMILES): CC(C)(COP(=O)(O)OP(=O)(O)OC[C@H]1O[C@@H](n2cnc3c(N)ncnc32)[C@H](O)[C@@H]1OP(=O)(O)O)[C@@H](O)C(=O)NCCC(=O)NCCSC(=O)CCCCCCCCCCCCCCCNc1ccc([N+](=O)[O-])c2nonc12 [NBD-palmitoyl-CoA, N-[(7-nitro-2-1,3-benzoxadiazol-4-yl)-methyl]amino palmitoyl]
auto-S-palmitoylation of HEK293 membranes, SDS-PAGE fluorescence normalised to t (human zDHHC14): C→Y mutation of Cys181 within the second zinc finger domain (Fig. 4A) eliminated auto-S-palmitoylation
Km (mouse zDHHC11): 0.89 ± 0.23 µM
